The record followed here is ChEMBL document CHEMBL5550219, “Distinct Amino Acid-Based PROTACs Target Oncogenic Kinases for Degradation in Non-Small Cell Lung Cancer (NSCLC)” (J Med Chem, 2024).

Test [1] concerns NCI-H3122. Briefly: Effect on EML4-ALK expression in human NCI-H3122 cells upto 20 uM incubated for 72 hrs by immunoblot analysis. The class given is functional, cell-based.
The subject of test [2] is Epidermal growth factor receptor (Homo sapiens), P00533 [L858R,T790M]. Kind of test: Inhibition of EGFR L858R/T790M mutant phosphorylation in human NCI-H1975 cells harboring sgGID4 at 1 to 20 uM incubated for 24 hrs by immunoblot analysis. The class given is cell-based. The conditions noted are these: dose 1-20 µM.
For the next test, the system named is NCI-H1975. Kind of test: Inhibition of cell viability in human NCI-H1975 cells incubated for 48 to 72 hrs by CCK8 assay.
In test [3] the test system is Epidermal growth factor receptor (Homo sapiens), P00533 [L858R,T790M]. Briefly: Induction of EGFR L858R/T790M mutant degradation in human NCI-H1975 cells harboring sgGID4 at 1 to 20 uM incubated for 24 hrs by immunoblot analysis. The format is cell-based. To be noted: dose 1-20 µM.
Test [4] deals with NCI-H3122. Kind of test: Inhibition of EML4-ALK phosphorylation in human NCI-H3122 cells at 2.5 uM incubated for 48 hrs followed by compound removal and incubation in drug-free medium for 12 to 72 hrs by immunoblot analysis. The format is cell-based.
The subject of test [5] is NCI-H3122. Kind of test: Inhibition of cell viability in human NCI-H3122 cells incubated for 48 to 72 hrs by CCK8 assay.
Test [6] relates to Glucose-induced degradation protein 4 homolog/Epidermal growth factor receptor (Homo sapiens), P00533+Q8IVV7 [L858R,T790M]. Kind of test: Inhibition of EGFR L858R/T790M mutant phosphorylation in human NCI-H1975 cells at 20 uM incubated for 72 hrs followed by compound removal and incubation in drug-free medium for 12 to 72 hrs by immunoblot analysis. The class given is cell-based.

Test [7] concerns the target T1, ZYG11B/ZER1/EML4-ALK (Homo sapiens, UniProt Q9UM73+Q9HC35+Q9C0D3+Q7Z7L7). Kind of test: PROTAC (AATac) activity at ZYG11B/ZER1/EML4-ALK in human NCI-H3122 cells harboring shZER1 assessed as protein degradation incubated for 24 hrs by immunoblot analysis. The format is cell-based.
The test system of a further test is A549. Briefly: Effect on wild-type EGFR expression in human A549 cells upto 20 uM incubated for 72 hrs by immunoblot analysis. The class given is functional, cell-based.
Test [8] concerns the target T1, ZYG11B/ZER1/EML4-ALK. Kind of test: PROTAC (AATac) activity at ZYG11B/ZER1/EML4-ALK in human NCI-H3122 cells assessed as protein degradation at 10 uM incubated for 48 to 72 hrs by immunoblot analysis relative to control. The class given is cell-based. The conditions noted are these: time 48-72 hrs.
The test system of test [9] is NCI-H3122. Briefly: Antitumor activity against human NCI-H3122 cells xenografted in nude mouse assessed as reduction in ALK level at 10 mg/kg, ip measured after 24 hrs by immunoblot analysis. The format is functional, organism-based.
The test system of test [10] is Protein zyg-11 homolog B/Protein zer-1 homolog/Epidermal growth factor receptor (Homo sapiens), P00533+Q9C0D3+Q7Z7L7 [L858R,T790M]. Kind of test: PROTAC (AATac) activity at ZYG11B/ZER1/EGFR L858R/T790M mutant in human NCI-H1975 cells assessed as protein degradation at 20 uM incubated for 48 to 72 hrs by immunoblot analysis relative to control. The format is cell-based. To be noted: time 48-72 hrs.

In test [11] the target is T1, ZYG11B/ZER1/EML4-ALK. Briefly: PROTAC (AATac) activity at ZYG11B/ZER1/EML4-ALK in human NCI-H3122 cells assessed as protein degradation upto 20 uM incubated for 72 hrs by immunoblot analysis. The format is cell-based.
Test [12] concerns the target T1, ZYG11B/ZER1/EML4-ALK. Kind of test: PROTAC (AATac) activity at ZYG11B/ZER1/EML4-ALK in human NCI-H3122 cells assessed as protein degradation at 10 uM incubated for […] by immunoblot analysis. The class given is cell-based.
The test system of test [13] is Protein zyg-11 homolog B/Protein zer-1 homolog/Epidermal growth factor receptor (Homo sapiens), P00533+Q9C0D3+Q7Z7L7 [L858R,T790M]. Briefly: PROTAC (AATac) activity at ZYG11B/ZER1/EGFR L858R/T790M mutant in human NCI-H1975 cells harboring shZYG11B assessed as protein degradation incubated for 72 hrs by immunoblot analysis. The class given is cell-based.
Test [14] concerns the target Protein zyg-11 homolog B/Protein zer-1 homolog/Epidermal growth factor receptor (Homo sapiens, UniProt P00533+Q9C0D3+Q7Z7L7, T790M/L858R). Kind of test: PROTAC (AATac) activity at ZYG11B/ZER1/EGFR L858R/T790M mutant in human NCI-H1975 cells assessed as protein degradation incubated for 48 to 72 hrs by immunoblot analysis. The format is cell-based.
Test [15] relates to Protein zyg-11 homolog B/Protein zer-1 homolog/Epidermal growth factor receptor (Homo sapiens), P00533+Q9C0D3+Q7Z7L7 [L858R,T790M]. Briefly: PROTAC (AATac) activity at ZYG11B/ZER1/EGFR L858R/T790M mutant in human NCI-H1975 cells assessed as protein degradation upto 20 uM incubated for 72 hrs by immunoblot analysis. The format is cell-based.
Test [16] has the same test system. Kind of test: PROTAC (AATac) activity at ZYG11B/ZER1/EGFR L858R/T790M mutant in human NCI-H1975 cells assessed as protein degradation at 20 uM incubated for 24 hrs by immunoblot analysis. The class given is cell-based.
For another test, the system named is NCI-H1299. Kind of test: Effect on wild-type EGFR expression in human NCI-H1299 cells upto 20 uM incubated for 72 hrs by immunoblot analysis. The format is functional, cell-based.
Test [17] deals with T1, ZYG11B/ZER1/EML4-ALK. Briefly: PROTAC (AATac) activity at ZYG11B/ZER1/EML4-ALK in human NCI-H3122 cells harboring shZYG11B assessed as protein degradation incubated for 24 hrs by immunoblot analysis. The class given is cell-based.
The test system of the next test is PC-9. Kind of test: Effect on EGFR del19 mutant expression in human PC-9 cells upto 20 uM incubated for 72 hrs by immunoblot analysis. The class given is functional, cell-based.
Test [18] concerns Protein zyg-11 homolog B/Protein zer-1 homolog/Epidermal growth factor receptor (Homo sapiens), P00533+Q9C0D3+Q7Z7L7 [L858R,T790M]. Kind of test: PROTAC (AATac) activity at ZYG11B/ZER1/EGFR L858R/T790M mutant in human NCI-H1975 cells harboring shZER1 assessed as protein degradation incubated for 72 hrs by immunoblot analysis. The class given is cell-based.
In test [19] the target is T1, ZYG11B/ZER1/EML4-ALK. Kind of test: PROTAC (AATac) activity at ZYG11B/ZER1/EML4-ALK in human NCI-H3122 cells assessed as protein degradation incubated for 48 to 72 hrs by immunoblot analysis. The class given is cell-based.
Test [20] concerns UBR/Epidermal growth factor receptor (Homo sapiens), P00533+Q5T4S7+Q8IWV7+Q8IWV8 [L858R,T790M]. Kind of test: PROTAC (AATac) activity at UBR1/2/4/EGFR L858R/T790M mutant in human NCI-H1975 cells assessed as protein degradation at 20 uM incubated for 48 to 72 hrs by immunoblot analysis relative to control. The class given is cell-based. The conditions noted are these: time 48-72 hrs.

For test [21], the target named is T2, UBR/ALK tyrosine kinase receptor/Echinoderm microtubule-associated protein-like 4 (Homo sapiens) (UniProt Q9UM73+Q9HC35+Q5T4S7+Q8IWV7+Q8IWV8). Kind of test: PROTAC (AATac) activity at UBR1/2/4/EML4-ALK in human NCI-H3122 cells assessed as protein degradation at 10 uM incubated for 48 to 72 hrs by immunoblot analysis relative to control. The format is cell-based. To be noted: time 48-72 hrs.

The target of test [22] is UBR/ALK tyrosine kinase receptor/Echinoderm microtubule-associated protein-like 4. Kind of test: PROTAC (AATac) activity at UBR1/2/4/EML4-ALK in human NCI-H3122 cells assessed as protein degradation incubated for 48 to 72 hrs by immunoblot analysis. The format is cell-based.
In test [23] the target is UBR/Epidermal growth factor receptor (Homo sapiens, UniProt P00533+Q5T4S7+Q8IWV7+Q8IWV8, T790M/L858R). Kind of test: PROTAC (AATac) activity at UBR1/2/4/EGFR L858R/T790M mutant in human NCI-H1975 cells assessed as protein degradation incubated for 48 to 72 hrs by immunoblot analysis. The class given is cell-based.
For test [24], the system named is UBR/Epidermal growth factor receptor (Homo sapiens), P00533+Q5T4S7+Q8IWV7+Q8IWV8 [L858R,T790M]. Briefly: PROTAC (AATac) activity at UBR1/2/4/EGFR L858R/T790M mutant in human NCI-H1975 cells assessed as protein degradation at 20 uM incubated for 48 hrs by immunoblot analysis. The format is cell-based.
For test [25], the target named is T2, UBR/ALK tyrosine kinase receptor/Echinoderm microtubule-associated protein-like 4 (Homo sapiens). Kind of test: PROTAC (AATac) activity at UBR1/2/4/EML4-ALK in human NCI-H3122 cells assessed as protein degradation upto 20 uM incubated for 72 hrs by immunoblot analysis. The format is cell-based.
In test [26] the test system is UBR/Epidermal growth factor receptor (Homo sapiens), P00533+Q5T4S7+Q8IWV7+Q8IWV8 [L858R,T790M]. Kind of test: PROTAC (AATac) activity at UBR1/2/4/EGFR L858R/T790M mutant in human NCI-H1975 cells assessed as protein degradation upto 20 uM incubated for 72 hrs by immunoblot analysis. The class given is cell-based.
The target of test [27] is T2, UBR/ALK tyrosine kinase receptor/Echinoderm microtubule-associated protein-like 4 (Homo sapiens). Kind of test: PROTAC (AATac) activity at UBR1/2/4/EML4-ALK in human NCI-H3122 cells assessed as protein degradation at 10 uM incubated for approximately 3 hrs by immunoblot analysis. The format is cell-based.

Activity calls are given as the source filed them. No cut-off for these calls is given here.

With `COc1cc(N2CCNCC2)ccc1Nc1ncc(Cl)c(Nc2ccccc2P(C)(C)=O)n1`, the result (in the test with NCI-H3122 [1]; in test [2]; in [3]) was inactive. The IC50 is 0.88 µM in the test on NCI-H1975 and 300 nM in the test with NCI-H3122 [5]. In addition, the inhibition entry (in the test with NCI-H3122 [4]; in test [6]) was “inactive” throughout.

Take `COc1cc(N2CCN(C(=O)CCOCCOCCOCCNC(=O)[C@@H](N)CCCN)CC2)ccc1Nc1ncc(Cl)c(Nc2ccccc2P(C)(C)=O)n1`: in the test with NCI-H3122 [1], the outcome was inactive.

Consider `COc1cc(N2CCN(C(=O)CCOCCOCCOCCNC(=O)CN)CC2)ccc1Nc1ncc(Cl)c(Nc2ccccc2P(C)(C)=O)n1`, for which the result (at ZYG11B/ZER1/EML4-ALK [7]; in the test with A549; in test [13]; in the test on NCI-H1299; at ZYG11B/ZER1/EML4-ALK [17]; in the test on PC-9) was inactive. Further, the result in test [18] was inactive. Further, the Emax on ZYG11B/ZER1/EML4-ALK [8] came out at 98%. The outcome (with NCI-H3122 [9]; on ZYG11B/ZER1/EML4-ALK [11]; on ZYG11B/ZER1/EML4-ALK [12]; in test [15]; in [16]) was Active. The Activity in test [10] came out at 43%. The IC50 in the test with NCI-H1975 was determined as 20.7 µM; in the test with NCI-H3122 [5], 840 nM. Moreover, the figures for the DC50 (in test [14]; on ZYG11B/ZER1/EML4-ALK [19]) were 20.1 µM and 500 nM, respectively.

Take `COc1cc(N2CCN(C(=O)CCOCCOCCOCCNC(=O)[C@@H](N)CCCCN)CC2)ccc1Nc1ncc(Cl)c(Nc2ccccc2P(C)(C)=O)n1`: the result in the test with A549, in the test on NCI-H1299 and in the test on PC-9 was inactive. Further, the Activity in [20] is 52%. In addition, the Emax in test [21] is 91%. In addition, the DC50 in test [22] stood at 1320 nM; in [23], 19.7 µM. Besides, the IC50 with NCI-H1975 came out at 18.6 µM; in the test with NCI-H3122 [5], 5300 nM. Besides, the result in test [24], in test [25], in test [26] and in [27] was Active.
